Measured values taken from US9440982B2 (Eolas Therapeutics, Inc., priority 2012, dated 2016).

target: T1, CYP3A4 (Homo sapiens, UniProt P08684); experiment: Cytochrome P450 inhibition assay (midazolam hydroxylation); type: in vitro ADME; settings: human, human liver microsomes, probe midazolam (hydroxylation to 1′-hydroxymidazolam), 10 μM test compound, midazolam at approximately its Km
T1 construct: pre-incubated with human liver microsomes and NADPH; from tissue; host or cells: human liver microsomes
Method: Compounds were tested for the potential to induce drug-drug interactions by inhibition of the cytochrome P450 3A4 isoform. The assay evaluated the metabolism of a specific marker substrate (CYP3A4, midazolam hydroxylation to 1′-hydroxymidazolam) in the presence or absence of 10 μM test compound. The concentration of the marker substrate was approximately its Km (Dixit et al., Biopharm. Drug Dispos. 2007, 28(5), 257-262). A specific inhibitor for the isoform was included in each run to validate the system. An appropriate positive control inhibitor was used. Mechanism-based inhibition was investigated where warranted using a classical method. To evaluate time-dependent inhibition, parallel samples may have been included where […] was pre-incubated with human liver microsomes and NADPH for 30 min prior to the addition of the P450 substrate. The percent inhibition of the pre-incubated and non-pre-incubated samples were compared as a preliminary evaluation of time-dependent inhibition.

T1 sequence (P08684 whole entry): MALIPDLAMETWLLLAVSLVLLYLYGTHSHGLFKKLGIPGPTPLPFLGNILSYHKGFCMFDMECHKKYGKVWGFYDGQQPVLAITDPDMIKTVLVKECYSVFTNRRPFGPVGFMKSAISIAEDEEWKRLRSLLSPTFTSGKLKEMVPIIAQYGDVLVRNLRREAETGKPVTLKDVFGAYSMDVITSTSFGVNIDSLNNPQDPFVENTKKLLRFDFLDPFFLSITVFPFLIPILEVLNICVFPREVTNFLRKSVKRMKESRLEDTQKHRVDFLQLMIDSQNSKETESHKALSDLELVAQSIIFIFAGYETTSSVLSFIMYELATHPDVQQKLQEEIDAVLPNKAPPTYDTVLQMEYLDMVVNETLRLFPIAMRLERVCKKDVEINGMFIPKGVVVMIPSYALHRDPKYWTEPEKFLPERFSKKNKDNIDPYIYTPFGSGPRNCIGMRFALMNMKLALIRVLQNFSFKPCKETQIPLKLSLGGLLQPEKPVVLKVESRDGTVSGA

SMILES | inhibition at 10 µM [%]
Cc1nc(C(=O)N2CCCC(C)C2CNc2ncc(C(F)(F)F)cn2)c(-c2ccc(F)cc2)s1 (racemic) [Example A311, (+/−)-cis-(5-(4-Fluorophenyl)-2-methylthiazol-4-yl)(3-methyl-2-(((5-(trifluoromethyl)pyrimidin-2-yl)amino)methyl)piperidin-1-yl)methanone] | 57
COc1ncc(-c2ccc(C)cc2C(=O)N2CCC[C@@H](C)[C@H]2CNc2ccc(C(F)(F)F)cn2)cn1 [Example A4, (2-(2-Methoxypyrimidin-5-yl)-5-methylphenyl)((2S,3R)-3-methyl-2-(((5-(trifluoromethyl)pyridin-2-yl)amino)methyl)piperidin-1-yl)methanone] | 96
Cc1ccc(-c2cncs2)c(C(=O)N2CCC[C@@H](C)[C@H]2CNc2ccc(C(F)(F)F)cn2)c1 [Example A25, ((2S,3R)-3-Methyl-2-(((5-(trifluoromethyl)pyridin-2-yl)amino)methyl)piperidin-1-yl)(5-methyl-2-(thiazol-5-yl)phenyl)methanone] | 99
Cc1ccc(-c2cncn2C)c(C(=O)N2CCC[C@@H](C)[C@H]2CNc2ccc(C(F)(F)F)cn2)c1 [Example A26, ((2S,3R)-3-Methyl-2-(((5-(trifluoromethyl)pyridin-2-yl)amino)methyl)piperidin-1-yl)(5-methyl-2-(1-methyl-1H-imidazol-5-yl)phenyl)methanone] | 99
Cc1ccc(-c2ccnc(C)n2)c(C(=O)N2CCC[C@@H](C)[C@H]2CNc2nc3cc(Cl)ccc3o2)c1 [Example A27, ((2S,3R)-2-(((5-Chlorobenzo[d]oxazol-2-yl)amino)methyl)-3-methylpiperidin-1-yl)(5-methyl-2-(2-methylpyrimidin-4-yl)phenyl)methanone] | 95
Cc1ccc(-c2cccnc2)c(C(=O)N2CCC[C@@H](C)[C@H]2CNc2nc3cc(Cl)ccc3o2)c1 [Example A31, ((2S,3R)-2-(((5-Chlorobenzo[d]oxazol-2-yl)amino)methyl)-3-methylpiperidin-1-yl)(5-methyl-2-(pyridin-3-yl)phenyl)methanone] | 98
Cc1ccc(-c2ccccn2)c(C(=O)N2CCC[C@@H](C)[C@H]2CNc2nc3cc(Cl)ccc3o2)c1 [Example A32, ((2S,3R)-2-(((5-Chlorobenzo[d]oxazol-2-yl)amino)methyl)-3-methylpiperidin-1-yl)(5-methyl-2-(pyridin-2-yl)phenyl)methanone] | 92

Results, then the compound that gave them:

inhibition at 10 µM [%] | SMILES
93 | Cc1ccc(-c2c(C)noc2C)c(C(=O)N2CCC[C@@H](C)[C@H]2CNc2ccc(C(F)(F)F)cn2)c1 [Example A7, (2-(3,5-Dimethylisoxazol-4-yl)-5-methylphenyl)((2S,3R)-3-methyl-2-(((5-(trifluoromethyl)pyridin-2-yl)amino)methyl)piperidin-1-yl)methanone]
78 | Cc1nc(C(=O)N2CCC[C@@H](C)[C@H]2CNc2nc3cc(F)ccc3o2)c(-c2ccc(F)cc2)s1 [Example A15, ((2S,3R)-2-(((5-Fluorobenzo[d]oxazol-2-yl)amino)methyl)-3-methylpiperidin-1-yl) (5-(4-fluorophenyl)-2-methylthiazol-4-yl)methanone]
72 | Cc1ccc(C#N)c(C(=O)N2CCC[C@@H](C)[C@H]2CNc2ccc(C(F)(F)F)cn2)c1 [Example A22, 4-Methyl-2-((2S,3R)-3-methyl-2-(((5-(trifluoromethyl)pyridin-2-yl)amino)methyl)piperidine-1-carbonyl)benzonitrile]
95 | Cc1ccc(-n2cncn2)c(C(=O)N2CCC[C@@H](C)[C@H]2CNc2nc3cc(Cl)ccc3o2)c1 [Example A28, ((2S,3R)-2-(((5-Chlorobenzo[d]oxazol-2-yl)amino)methyl)-3-methylpiperidin-1-yl)(5-methyl-2-(1H-1,2,4-triazol-1-yl)phenyl)methanone]
97 | Cc1ccc(-c2nccs2)c(C(=O)N2CCC[C@@H](C)[C@H]2CNc2nc3cc(Cl)ccc3o2)c1 [Example A30, ((2S,3R)-2-(((5-Chlorobenzo[d]oxazol-2-yl)amino)methyl)-3-methylpiperidin-1-yl)(5-methyl-2-(thiazol-2-yl)phenyl)methanone]
98 | Cc1ccc(-n2ccnc2)c(C(=O)N2CCC[C@@H](C)[C@H]2CNc2nc3cc(Cl)ccc3o2)c1 [Example A33, (2-(1H-Imidazol-1-yl)-5-methylphenyl)((2S,3R)-2-(((5-chlorobenzo[d]oxazol-2-yl)amino)methyl)-3-methylpiperidin-1-yl)methanone]

target: T2, OX1 (Homo sapiens, UniProt O43613); experiment: Orexin receptor cell-based functional assay, [Ca2+]i by FLIPR, CHO-OX1 cells; settings: CHO-OX1 cells, [Ca2+]i by FLIPR, antagonist dose-range 0.1 nM-10 μM, EC90 of OXA; read-out: OX1
T2 construct: expressed in transfected cells; host or cells: CHO (CHO-OX1, kept under selection antibiotic)
T2 sequence (O43613 1-425): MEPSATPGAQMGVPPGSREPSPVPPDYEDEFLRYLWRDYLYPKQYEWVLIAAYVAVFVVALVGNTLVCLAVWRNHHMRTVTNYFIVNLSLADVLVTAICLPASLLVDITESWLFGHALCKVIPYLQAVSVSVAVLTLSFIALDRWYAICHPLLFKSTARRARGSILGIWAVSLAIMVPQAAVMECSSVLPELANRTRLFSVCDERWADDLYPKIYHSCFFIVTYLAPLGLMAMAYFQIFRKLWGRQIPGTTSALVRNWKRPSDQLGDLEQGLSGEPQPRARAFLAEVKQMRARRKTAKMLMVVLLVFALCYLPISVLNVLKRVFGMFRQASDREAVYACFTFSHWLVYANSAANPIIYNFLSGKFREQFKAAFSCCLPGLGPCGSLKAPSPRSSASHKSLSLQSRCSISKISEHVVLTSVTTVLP
Procedure, shortened: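 CHO cells expressing human OX1 or OX2 loaded with calcium dye plus 2.5 mM probenecid at 37° C (calcium4, 30 min, or calcium6, 2 h), then exposed to compounds (0.1 nM-10 μM) for 30 min. Intracellular Ca2+ measured on FLIPR; antagonist format.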

SMILES | IC50 [nM]
Cc1ccc(-c2ccccn2)c(C(=O)N2CCC[C@@H](C)[C@H]2CNc2ccc(C(F)(F)F)cn2)n1 [Example A217, ((2S,3R)-3-Methyl-2-(((5-(trifluoromethyl)pyridin-2-yl)amino)methyl)piperidin-1-yl)(6′-methyl-[2,3′-bipyridin]-2′-yl)methanone] | 150
Cc1ccc(-c2cccnc2)c(C(=O)N2CCC[C@@H](C)[C@H]2CNc2ncc(Cl)cn2)n1 [Example A222, ((2S,3R)-2-(((5-Chloropyrimidin-2-yl)amino)methyl)-3-methylpiperidin-1-yl)(6-methyl-[3,3′-bipyridin]-2-yl)methanone] | 82
Cc1ccc(-c2cccnc2)c(C(=O)N2CCC[C@@H](C)[C@H]2CNc2ccc(Cl)cn2)n1 [Example A224] | 13
C[C@@H]1CCCN(C(=O)c2ccc(F)cc2-n2nccn2)[C@@H]1CNc1ncc(C(F)(F)F)cn1 [Example A251, (4-Fluoro-2-(2H-1,2,3-triazol-2-yl)phenyl)((2S,3R)-3-methyl-2-(((5-(trifluoromethyl)pyrimidin-2-yl)amino)methyl)piperidin-1-yl)methanone] | 58
Cc1ccc(C(=O)N2CCC[C@@H](C)[C@H]2CNc2ncc(C(F)(F)F)cn2)c(-n2nccn2)c1 [Example A272, ((2S,3R)-3-Methyl-2-(((5-(trifluoromethyl)pyrimidin-2-yl)amino)methyl)piperidin-1-yl)(4-methyl-2-(2H-1,2,3-triazol-2-yl)phenyl)methanone] | 14
Cc1c(F)ccc(-n2nccn2)c1C(=O)N1CCC[C@@H](C)[C@H]1CNc1ccc(C(F)(F)F)cn1 [Example A384, (3-Fluoro-2-methyl-6-(2H-1,2,3-triazol-2-yl)phenyl)((2S,3R)-3-methyl-2-(((5-(trifluoromethyl)pyridin-2-yl)amino)methyl)piperidin-1-yl)methanone] | 19

Second part, the compound after the results:

IC50 [nM] | SMILES
340 | C[C@@H]1CCCN(C(=O)c2nccc3ccccc23)[C@@H]1CNc1ncc(Cl)cn1 [Example A225, ((2S,3R)-2-(((5-Chloropyrimidin-2-yl)amino)methyl)-3-methylpiperidin-1-yl)(isoquinolin-1-yl)methanone]
6 | Cc1ccc(C(=O)N2CCC[C@@H](C)[C@H]2CNc2ccc(C(F)(F)F)cn2)c(-n2nccn2)c1 [Example A273, ((2S,3R)-3-Methyl-2-(((5-(trifluoromethyl)pyridin-2-yl)amino)methyl)piperidin-1-yl)(4-methyl-2-(2H-1,2,3-triazol-2-yl)phenyl)methanone]
10 | C[C@@H]1CCCN(C(=O)c2c(-n3nccn3)ccc(F)c2F)[C@@H]1CNc1ccc(C(F)(F)F)cn1 [Example A336, (2,3-Difluoro-6-(2H-1,2,3-triazol-2-yl)phenyl)((2S,3R)-3-methyl-2-(((5-(trifluoromethyl)pyridin-2-yl)amino)m*ethyl)piperidin-1-yl)methanone]
9 | C[C@@H]1CCCN(C(=O)c2c(-n3nccn3)ccc(F)c2F)[C@@H]1CNc1ncc(C(F)(F)F)cn1 [Example A337, (2,3-Difluoro-6-(2H-1,2,3-triazol-2-yl)phenyl)((2S,3R)-3-methyl-2-(((5-(trifluoromethyl)pyrimidin-2-yl)amino)methyl)piperidin-1-yl)methanone]
5 | COc1ccc(-n2nccn2)c(C(=O)N2CCC[C@@H](C)[C@H]2CNc2ncc(C(F)(F)F)cn2)c1F [Example A339, (2-Fluoro-3-methoxy-6-(2H-1,2,3-triazol-2-yl)phenyl)((2S,3R)-3-methyl-2-(((5-(trifluoromethyl)pyrimidin-2-yl)amino)methyl)piperidin-1-yl)methanone]
5 | C[C@@H]1CCCN(C(=O)c2c(-c3ncccn3)ccc(F)c2F)[C@@H]1CNc1ncc(C(F)(F)F)cn1 [Example A389, (2,3-Difluoro-6-(pyrimidin-2-yl)phenyl)((2S,3R)-3-methyl-2-(((5-(trifluoromethyl)pyrimidin-2-yl)amino)methyl)piperidin-1-yl)methanone]
